Measured values reported in patent US20120067455A1, “Apparatus and Methods for Loading a Drug Eluting Medical Device” (Medtronic Vascular, Inc., priority 2010, published 2012).

Experiment: Solubility of sirolimus in solvents and dispersion media
Assay type: physicochemical
Description: Solution 524 is a homogeneous mixture in which therapeutic substance 112 dissolves within a solvent or a solvent mixture. In one embodiment, solution 524 includes a high-capacity solvent 528 which is an organic solvent that has a high capacity to dissolve therapeutic substance 112. High capacity as utilized herein is defined as an ability to dissolve therapeutic substance 112 at concentrations greater than 500 mg of substance per milliliter of solvent. Examples of high capacity drug dissolving solvents for sirolimus and similar substances include but are not limited to tetrahydrofuran (THF), di-chloromethane (DCM), chloroform, and di-methyl-sulfoxide (DMSO). In addition to the high-capacity solvent, solution 524 may include an excipient 526 in order to assist in drug elution. In one embodiment, excipient 526 may be a surfactant such as but not limited to sorbitan fatty acid esters such as sorbitan monooleate and sorbitan monolaurate, polysorbates such as polysorbate 20, polysorbate 60, and polysorbate 80, cyclodextrins such as 2-hydroxypropyl-beta-cyclodextrin and 2,6-di-O-methyl-beta-cyclodextrin, sodium dodecyl sulfate, octyl glucoside, and low molecular weight poly(ethylene glycol)s. In another embodiment, excipient 526 may be a hydrophilic agent such as but not limited to salts such as sodium chloride and other materials such as urea, citric acid, and ascorbic acid. In yet another embodiment, excipient 526 may be a stabilizer such as but not limited to butylated hydroxytoluene (BHT). Depending on the desired drug load, a low capacity solvent can also be chosen for its reduced solubility of therapeutic substance 112. Low capacity is defined as an ability to dissolve therapeutic substance 112 at concentrations typically below 500 mg of drug per milliliter solvent. Examples of low capacity drug dissolving solvents for sirolimus and similar substances include but are not limited to methanol, ethanol, propanol, acetonitrile, ethyl lactate, acetone, and solvent mixtures like tetrahydrafuran/water (9:1 weight ratio). […]

- solubility in supercritical carbon dioxide (SCCO2): low capacity
- solubility in hexane (hexane): insoluble
- solubility in water (water): insoluble
SMILES: CO[C@H]1C[C@@H]2CC[C@@H](C)[C@@](O)(O2)C(=O)C(=O)N2CCCC[C@H]2C(=O)O[C@H]([C@H](C)C[C@@H]2CC[C@@H](O)[C@H](OC)C2)CC(=O)[C@H](C)/C=C(\C)[C@@H](O)[C@@H](OC)C(=O)[C@H](C)C[C@H](C)/C=C/C=C/C=C/1C [sirolimus]
